Assays:
Assay type in all cases: cell-based
Conditions in all cases: compounds at 50 nM and 500 nM
IKZF3 = target: T1, IKZF3 (Homo sapiens, UniProt Q96SW2+Q9UKT9); assay: Western blot degradation of IKZF3 in hPBMCs (24 h)
T1 construct: The supernatant was aspirated as the extracted total cell protein; endogenous in cells; host or cells: human peripheral blood mononuclear cells (hPBMCs)
Protocol: (§1) Conventional Western blot assay was performed to evaluate the effects of the compounds of the present disclosure on the expression of target proteins in cells. • (1) Cell Seeding and Protein Harvesting: Human peripheral blood mononuclear cells (hPBMCs) at a density of 1×10^6 cells/mL were thawed according to the PBMC Recovery Protocol (Milecell Biotechnologies Inc, Shanghai). The cells were then treated with the compounds of the present disclosure (including the compounds listed in Table 1, and the Examples 1-498 compounds) at concentrations of 50 nM and 500 nM. Controls included a negative control (DMSO) and a positive control (the commercial immunomodulatory drug lenalidomide), both processed following the identical experimental protocol as the compounds of the present disclosure. After 24 hours of compounds treatment, cells were harvested and lysed in RIPA protein lysate containing protease inhibitors on ice for 30 min, followed by centrifugation. The supernatant was aspirated as the extracted total cell protein. The protein concentration of the supernatant was determined using the conventional BCA (Bicinchoninic Acid) assay. • (2) To the collected supernatant, 5×SDS sample loading buffer was added, followed by denaturation at 95 °C for 5 minutes. The denatured samples were then separated by SDS-PAGE electrophoresis on a polyacrylamide gel. Proteins were transferred to a nitrocellulose membrane (0.45 μm NC membrane), blocked with blocking buffer at room temperature for 1 hour, and subjected to antibody incubation and development procedures according to the antibody manufacturer's instructions (Cell Signaling Technology).
(§2) Half-Maximal Degradation Concentration value (the drug concentration required for degrading proteins by 50%, abbreviated as DC50) reads method: comparing the grayscale values of Western blot bands from drug-treated samples with those from blank DMSO-treated controls, and identifying the drug concentration range at which the grayscale value is half that of the DMSO-treated control bands.
(§3) DC50 values can be calculated using ImageJ software to measure grayscale values of Western blot bands from drug-treated samples. The concentration-response curve is fitted to estimate the drug concentration corresponding to half the grayscale value.
(§4) Target protein remaining (%) refers to the percentage of target protein remaining in cells after treatment with protein degrader compounds.
(§5) Calculation method for target protein remaining (%): Use ImageJ software to measure grayscale values of Western blot bands from drug (protein degrader)-treated samples. The grayscale value of drug-treated bands is divided by that of internal control protein bands, and the resulting quotient is normalized to obtain the relative percentage of remaining target protein after protein degrader treatment.
(§6) Target protein degradation rate (%)=1−target protein remaining (%).

IKZF2 = target: T2, IKZF2 (Homo sapiens, UniProt Q96SW2+Q9UKS7); assay: Western blot degradation of IKZF2 in hPBMCs (24 h)
T2 construct: The supernatant was aspirated as the extracted total cell protein; endogenous in cells; host or cells: human peripheral blood mononuclear cells (hPBMCs)
T2 sequence (Q9UKS7 whole entry): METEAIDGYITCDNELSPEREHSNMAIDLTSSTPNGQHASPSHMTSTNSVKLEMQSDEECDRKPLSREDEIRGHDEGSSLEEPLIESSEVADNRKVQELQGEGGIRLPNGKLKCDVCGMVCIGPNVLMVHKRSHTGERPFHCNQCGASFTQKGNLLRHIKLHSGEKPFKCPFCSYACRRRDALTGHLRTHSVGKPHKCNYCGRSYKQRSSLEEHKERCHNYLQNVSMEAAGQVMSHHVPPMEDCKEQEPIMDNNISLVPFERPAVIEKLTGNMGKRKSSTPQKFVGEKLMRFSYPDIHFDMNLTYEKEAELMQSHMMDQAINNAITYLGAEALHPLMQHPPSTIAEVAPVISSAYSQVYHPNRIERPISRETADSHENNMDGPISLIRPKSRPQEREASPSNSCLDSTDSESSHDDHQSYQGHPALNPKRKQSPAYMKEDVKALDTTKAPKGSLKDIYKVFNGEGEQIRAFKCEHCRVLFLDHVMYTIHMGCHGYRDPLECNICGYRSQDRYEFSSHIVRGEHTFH
T2 sequence (Q96SW2 whole entry): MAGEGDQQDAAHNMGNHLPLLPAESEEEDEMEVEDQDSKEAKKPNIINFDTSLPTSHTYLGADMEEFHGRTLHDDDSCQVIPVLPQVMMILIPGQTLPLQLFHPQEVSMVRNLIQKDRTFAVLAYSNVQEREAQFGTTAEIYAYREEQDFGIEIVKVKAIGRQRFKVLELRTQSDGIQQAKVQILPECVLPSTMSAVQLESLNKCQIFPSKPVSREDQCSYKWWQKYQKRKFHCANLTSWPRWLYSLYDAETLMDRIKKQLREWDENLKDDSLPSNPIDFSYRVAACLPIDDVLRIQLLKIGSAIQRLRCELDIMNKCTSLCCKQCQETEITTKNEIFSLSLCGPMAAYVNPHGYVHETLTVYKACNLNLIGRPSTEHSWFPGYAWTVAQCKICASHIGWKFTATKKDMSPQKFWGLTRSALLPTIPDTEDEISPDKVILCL
T2 sequence (Q16531 whole entry partner): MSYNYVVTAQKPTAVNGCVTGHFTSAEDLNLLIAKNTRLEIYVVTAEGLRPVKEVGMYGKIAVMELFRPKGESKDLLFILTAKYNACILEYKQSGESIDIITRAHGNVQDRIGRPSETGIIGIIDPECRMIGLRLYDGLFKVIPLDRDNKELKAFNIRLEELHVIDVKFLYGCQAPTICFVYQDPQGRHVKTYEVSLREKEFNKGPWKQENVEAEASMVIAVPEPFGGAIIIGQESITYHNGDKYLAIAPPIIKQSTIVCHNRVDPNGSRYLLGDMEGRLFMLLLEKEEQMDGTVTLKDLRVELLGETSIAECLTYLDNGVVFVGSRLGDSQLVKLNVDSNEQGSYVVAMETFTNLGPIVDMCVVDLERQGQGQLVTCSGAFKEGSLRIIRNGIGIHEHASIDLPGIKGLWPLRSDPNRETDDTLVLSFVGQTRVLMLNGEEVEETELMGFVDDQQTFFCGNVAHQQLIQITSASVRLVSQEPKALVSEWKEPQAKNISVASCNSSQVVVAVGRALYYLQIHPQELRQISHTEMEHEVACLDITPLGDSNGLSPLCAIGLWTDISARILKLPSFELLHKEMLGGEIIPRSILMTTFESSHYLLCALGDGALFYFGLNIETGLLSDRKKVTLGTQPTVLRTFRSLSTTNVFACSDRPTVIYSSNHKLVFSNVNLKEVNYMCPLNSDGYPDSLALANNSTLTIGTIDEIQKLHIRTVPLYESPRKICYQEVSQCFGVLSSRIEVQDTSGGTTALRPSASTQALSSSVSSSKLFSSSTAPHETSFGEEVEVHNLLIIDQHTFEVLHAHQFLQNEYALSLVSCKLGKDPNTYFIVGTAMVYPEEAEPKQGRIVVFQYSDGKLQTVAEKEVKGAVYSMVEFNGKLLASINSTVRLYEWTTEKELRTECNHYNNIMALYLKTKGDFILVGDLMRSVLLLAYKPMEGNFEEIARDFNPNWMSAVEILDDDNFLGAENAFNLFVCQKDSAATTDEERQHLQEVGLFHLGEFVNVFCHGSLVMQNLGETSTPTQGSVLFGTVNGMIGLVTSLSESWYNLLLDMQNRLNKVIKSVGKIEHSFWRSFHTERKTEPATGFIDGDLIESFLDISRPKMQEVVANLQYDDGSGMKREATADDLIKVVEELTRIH
Protocol: as §1, §2, §3, §4, §5, §6

IKZF1 = target: T3, IKZF1 (Homo sapiens, UniProt Q13422+Q96SW2); assay: Western blot degradation of IKZF1 in hPBMCs (24 h)
T3 construct: The supernatant was aspirated as the extracted total cell protein; endogenous in cells; host or cells: human peripheral blood mononuclear cells (hPBMCs)
T3 sequence (Q13422 whole entry): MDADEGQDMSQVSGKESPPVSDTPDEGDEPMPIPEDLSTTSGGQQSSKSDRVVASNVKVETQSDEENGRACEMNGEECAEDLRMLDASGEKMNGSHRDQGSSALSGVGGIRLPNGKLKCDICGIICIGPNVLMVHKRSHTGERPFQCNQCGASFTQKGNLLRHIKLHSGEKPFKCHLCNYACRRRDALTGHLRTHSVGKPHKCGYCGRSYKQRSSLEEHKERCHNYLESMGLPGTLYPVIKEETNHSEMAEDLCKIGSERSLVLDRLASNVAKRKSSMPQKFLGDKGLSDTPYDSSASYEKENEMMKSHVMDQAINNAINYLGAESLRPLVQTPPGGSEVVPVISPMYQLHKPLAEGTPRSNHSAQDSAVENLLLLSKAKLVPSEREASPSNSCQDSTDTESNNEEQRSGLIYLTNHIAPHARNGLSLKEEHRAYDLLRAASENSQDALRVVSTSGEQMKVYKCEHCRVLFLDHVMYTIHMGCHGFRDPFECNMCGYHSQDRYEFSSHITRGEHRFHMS
T3 sequence (Q96SW2 whole entry): as the sequence (Q96SW2 whole entry) above
T3 sequence (Q16531 whole entry partner): as the sequence (Q16531 whole entry partner) above
Protocol: as §1, §2, §3, §4, §5, §6

WEE1 = target: T4, WEE1 (Homo sapiens, UniProt P30291+Q96SW2); assay: Western blot degradation of WEE1 in hPBMCs (24 h)
T4 construct: The supernatant was aspirated as the extracted total cell protein; endogenous in cells; host or cells: human peripheral blood mononuclear cells (hPBMCs)
T4 sequence (P30291 whole entry): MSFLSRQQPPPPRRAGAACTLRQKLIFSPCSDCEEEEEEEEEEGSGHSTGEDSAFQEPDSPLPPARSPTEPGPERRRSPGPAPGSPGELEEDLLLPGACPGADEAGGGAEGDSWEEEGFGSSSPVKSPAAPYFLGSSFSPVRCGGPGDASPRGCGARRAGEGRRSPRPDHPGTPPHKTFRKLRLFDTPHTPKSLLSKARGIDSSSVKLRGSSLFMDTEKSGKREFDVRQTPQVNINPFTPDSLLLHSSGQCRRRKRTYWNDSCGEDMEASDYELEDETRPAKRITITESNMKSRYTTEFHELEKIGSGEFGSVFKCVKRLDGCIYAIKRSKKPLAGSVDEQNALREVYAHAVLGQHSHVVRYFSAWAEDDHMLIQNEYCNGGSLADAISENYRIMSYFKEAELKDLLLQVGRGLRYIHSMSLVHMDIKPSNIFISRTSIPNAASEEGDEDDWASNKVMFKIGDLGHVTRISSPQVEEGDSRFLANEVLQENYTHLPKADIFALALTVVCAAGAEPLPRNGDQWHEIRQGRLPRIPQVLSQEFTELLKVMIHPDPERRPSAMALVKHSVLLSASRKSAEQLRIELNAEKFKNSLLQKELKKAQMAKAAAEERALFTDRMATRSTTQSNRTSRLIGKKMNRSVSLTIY
T4 sequence (Q96SW2 whole entry): as the sequence (Q96SW2 whole entry) above
T4 sequence (Q16531 whole entry partner): as the sequence (Q16531 whole entry partner) above
Protocol: as §1, §2, §3, §4, §5, §6

GSPT1 = target: T5, GSPT1 (Homo sapiens, UniProt P15170+Q96SW2); assay: Western blot degradation of GSPT1 in hPBMCs (24 h)
T5 construct: The supernatant was aspirated as the extracted total cell protein; endogenous in cells; host or cells: human peripheral blood mononuclear cells (hPBMCs)
T5 sequence (P15170 whole entry): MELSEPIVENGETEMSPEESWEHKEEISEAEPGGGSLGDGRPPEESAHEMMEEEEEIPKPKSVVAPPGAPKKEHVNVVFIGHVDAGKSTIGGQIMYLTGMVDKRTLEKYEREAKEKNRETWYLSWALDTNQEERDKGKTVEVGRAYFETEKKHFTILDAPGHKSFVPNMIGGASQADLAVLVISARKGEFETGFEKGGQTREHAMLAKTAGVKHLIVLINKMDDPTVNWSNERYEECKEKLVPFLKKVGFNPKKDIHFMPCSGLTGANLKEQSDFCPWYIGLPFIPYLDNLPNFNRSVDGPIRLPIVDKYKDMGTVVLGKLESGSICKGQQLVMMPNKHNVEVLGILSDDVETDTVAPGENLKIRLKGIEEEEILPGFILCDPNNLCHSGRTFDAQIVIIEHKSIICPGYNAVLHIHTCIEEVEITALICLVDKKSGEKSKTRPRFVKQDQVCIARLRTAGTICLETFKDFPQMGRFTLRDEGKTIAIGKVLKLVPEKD
T5 sequence (Q96SW2 whole entry): as the sequence (Q96SW2 whole entry) above
T5 sequence (Q16531 whole entry partner): as the sequence (Q16531 whole entry partner) above
Protocol: as §1, §2, §3, §4, §5, §6

CK1α = target: T6, CK1α (Homo sapiens, UniProt P48729+Q96SW2); assay: Western blot degradation of CK1α in hPBMCs (24 h)
T6 construct: The supernatant was aspirated as the extracted total cell protein; endogenous in cells; host or cells: human peripheral blood mononuclear cells (hPBMCs)
Protocol: as §1, §2, §3, §4, §5, §6

T1 sequence (Q9UKT9 whole entry): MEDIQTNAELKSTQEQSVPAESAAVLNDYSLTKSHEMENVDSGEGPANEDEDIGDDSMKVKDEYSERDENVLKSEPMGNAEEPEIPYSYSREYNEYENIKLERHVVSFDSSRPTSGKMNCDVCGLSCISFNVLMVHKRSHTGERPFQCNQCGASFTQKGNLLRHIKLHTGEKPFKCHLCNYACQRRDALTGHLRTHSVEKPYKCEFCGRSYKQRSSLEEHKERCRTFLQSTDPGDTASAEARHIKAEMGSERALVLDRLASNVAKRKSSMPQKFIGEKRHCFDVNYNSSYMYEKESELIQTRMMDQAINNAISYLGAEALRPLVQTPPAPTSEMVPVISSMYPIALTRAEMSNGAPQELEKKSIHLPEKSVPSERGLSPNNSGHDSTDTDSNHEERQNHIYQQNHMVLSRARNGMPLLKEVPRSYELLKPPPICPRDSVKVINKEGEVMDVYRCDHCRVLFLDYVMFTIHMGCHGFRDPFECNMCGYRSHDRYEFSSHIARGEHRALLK
T1 sequence (Q96SW2 whole entry): as the sequence (Q96SW2 whole entry) above
T1 sequence (Q16531 whole entry partner): as the sequence (Q16531 whole entry partner) above

Structure (SMILES) | IKZF3 substrate protein remaining % (IKZF3) | IKZF2 substrate protein remaining % (IKZF2) | IKZF1 substrate protein remaining % (IKZF1) | WEE1 substrate protein remaining % (WEE1) | GSPT1 substrate protein remaining % (GSPT1) | CK1α substrate protein remaining % (CK1α)
O=C1CCN(N2Cc3cc(CN4CCN(c5cc(Cl)ccn5)CC4)ccc3C2=O)C(=O)N1 [GT-05128, 1-(5-((4-(4-chloropyridin-2-yl)piperazin-1-yl)methyl)-1-oxoisoindolin-2-yl)dihydropyrimidine-2,4(1H,3H)-dione] | A (0% ≤ substrate protein remaining % ≤80%) | A (0% ≤ substrate protein remaining % ≤80%) | A (0% ≤ substrate protein remaining % ≤80%) | A (0% ≤ substrate protein remaining % ≤80%) | A (0% ≤ substrate protein remaining % ≤80%) | A (0% ≤ substrate protein remaining % ≤80%)
O=C1CCN(N2Cc3cc(CN4CCN(c5ncccc5F)CC4)ccc3C2=O)C(=O)N1 [GT-05129, 1-(5-((4-(3-fluoropyridin-2-yl)piperazin-1-yl)methyl)-1-oxoisoindolin-2-yl)dihydropyrimidine-2,4(1H,3H)-dione] | A (0% ≤ substrate protein remaining % ≤80%) | A (0% ≤ substrate protein remaining % ≤80%) | A (0% ≤ substrate protein remaining % ≤80%) | A (0% ≤ substrate protein remaining % ≤80%) | A (0% ≤ substrate protein remaining % ≤80%) | A (0% ≤ substrate protein remaining % ≤80%)
O=C1CCN(N2Cc3cc(CN4CCN(c5cccc(F)n5)CC4)ccc3C2=O)C(=O)N1 [GT-05130, 1-(5-((4-(6-fluoropyridin-2-yl)piperazin-1-yl)methyl)-1-oxoisoindolin-2-yl)dihydropyrimidine-2,4(1H,3H)-dione] | A (0% ≤ substrate protein remaining % ≤80%) | A (0% ≤ substrate protein remaining % ≤80%) | A (0% ≤ substrate protein remaining % ≤80%) | A (0% ≤ substrate protein remaining % ≤80%) | A (0% ≤ substrate protein remaining % ≤80%) | A (0% ≤ substrate protein remaining % ≤80%)
O=C1CCN(N2Cc3cc(CN4CCN(c5ccc(F)cn5)CC4)ccc3C2=O)C(=O)N1 [GT-05131, 1-(5-((4-(5-fluoropyridin-2-yl)piperazin-1-yl)methyl)-1-oxoisoindolin-2-yl)dihydropyrimidine-2,4(1H,3H)-dione] | A (0% ≤ substrate protein remaining % ≤80%) | A (0% ≤ substrate protein remaining % ≤80%) | A (0% ≤ substrate protein remaining % ≤80%) | A (0% ≤ substrate protein remaining % ≤80%) | A (0% ≤ substrate protein remaining % ≤80%) | A (0% ≤ substrate protein remaining % ≤80%)
O=C1CCN(N2Cc3cc(CN4C5CC4CN(c4cccc(Cl)c4Cl)C5)ccc3C2=O)C(=O)N1 [GT-05162, 1-(5-((3-(2,3-dichlorophenyl)-3,6-diazabicyclo[3.1.1]heptan-6-yl)methyl)-1-oxoisoindolin-2-yl)dihydropyrimidine-2,4(1H,3H)-dione] | A (0% ≤ substrate protein remaining % ≤80%) | B (80%< substrate protein remaining % ≤100%) | B (80%< substrate protein remaining % ≤100%) | B (80%< substrate protein remaining % ≤100%) | A (0% ≤ substrate protein remaining % ≤80%) | B (80%< substrate protein remaining % ≤100%)
O=C1CCN(N2C(=O)c3ccc(CN4CCC(N(c5ccccc5)c5ccccc5)CC4)cc3C2=O)C(=O)N1 [GT-05177, 2-(2,4-dioxotetrahydropyrimidin-1(2H)-yl)-5-((4-(diphenylamino)piperidin-1-yl)methyl)isoindoline-1,3-dione] | B (80%< substrate protein remaining % ≤100%) | B (80%< substrate protein remaining % ≤100%) | B (80%< substrate protein remaining % ≤100%) | B (80%< substrate protein remaining % ≤100%) | A (0% ≤ substrate protein remaining % ≤80%) | B (80%< substrate protein remaining % ≤100%)
O=C1CCN(N2C(=O)c3ccc(CN4CCC(Nc5ccccc5-c5ccc(Cl)cc5)CC4)cc3C2=O)C(=O)N1 [GT-05179, 5-((4-((4′-chloro-[1,1′-biphenyl]-2-yl)amino)piperidin-1-yl)methyl)-2-(2,4-dioxotetrahydropyrimidin-1(2H)-yl)isoindoline-1,3-dione] | B (80%< substrate protein remaining % ≤100%) | B (80%< substrate protein remaining % ≤100%) | B (80%< substrate protein remaining % ≤100%) | A (0% ≤ substrate protein remaining % ≤80%) | B (80%< substrate protein remaining % ≤100%) | B (80%< substrate protein remaining % ≤100%)
CC1(C)CCC(CN2CCN(Cc3ccc4c(c3)C(=O)N(N3CCC(=O)NC3=O)C4=O)CC2)=C(c2ccc(Cl)cc2)C1 [GT-05180, 5-((4-((4′-chloro-5,5-dimethyl-3,4,5,6-tetrahydro-[1,1′-biphenyl]-2-yl)methyl)piperazin-1-yl)methyl)-2-(2,4-dioxotetrahydropyrimidin-1(2H)-yl)isoindoline-1,3-dione] | B (80%< substrate protein remaining % ≤100%) | B (80%< substrate protein remaining % ≤100%) | B (80%< substrate protein remaining % ≤100%) | A (0% ≤ substrate protein remaining % ≤80%) | B (80%< substrate protein remaining % ≤100%) | B (80%< substrate protein remaining % ≤100%)
O=C1CCN(N2C(=O)c3ccc(CN4CC=C(c5c[nH]c6ncccc56)CC4)cc3C2=O)C(=O)N1 [GT-05181, 5-((4-(1H-pyrrolo[2,3-b]pyridin-3-yl)-3,6-dihydropyridin-1(2H)-yl)methyl)-2-(2,4-dioxotetrahydropyrimidin-1(2H)-yl)isoindoline-1,3-dione] | B (80%< substrate protein remaining % ≤100%) | B (80%< substrate protein remaining % ≤100%) | B (80%< substrate protein remaining % ≤100%) | A (0% ≤ substrate protein remaining % ≤80%) | B (80%< substrate protein remaining % ≤100%) | B (80%< substrate protein remaining % ≤100%)
O=C1CCN(N2C(=O)c3ccc(CN4CC=C(c5cccc(Cl)c5Cl)CC4)cc3C2=O)C(=O)N1 [GT-05249, 5-((4-(2,3-dichlorophenyl)-3,6-dihydropyridin-1(2H)-yl)methyl)-2-(2,4-dioxotetrahydropyrimidin-1(2H)-yl)isoindoline-1,3-dione] | B (80%< substrate protein remaining % ≤100%) | B (80%< substrate protein remaining % ≤100%) | A (0% ≤ substrate protein remaining % ≤80%) | B (80%< substrate protein remaining % ≤100%) | A (0% ≤ substrate protein remaining % ≤80%) | B (80%< substrate protein remaining % ≤100%)

Reference: US20260356819A1, “OXOISOINDOLINYL-SUBSTITUTED […] DERIVATIVE AND USE THEREOF” (GLUETACS THERAPEUTICS (SHANGHAI) CO., LTD., priority 2023, published 2026)
